Results as given in patent US20140296143A1, “Angiotensin-(1-7) As A Chemoprevention Agent” (Wake Forest Innovations, priority 2008, published 2014).

Legend:
[1] = tested on: VEGF mRNA; experiment: VEGF mRNA in A549 cells by RT-PCR; assay type: cell-based, human; details: 100 nM, 2-4 hours
Procedure: RNA, isolated from cells or tissue, using the TRIzol reagent (GIBCO Invitrogen, Carlsbad, Calif.), was subjected to reverse transcriptase/real-time polymerase chain reaction as previously described (Tallant et al., Am. J. Physiol. Heart Circ. Physiol., 2005, 289:1560-1566). All reactions were performed in triplicate and 18S ribosomal RNA, amplified using the TaqMan Ribosomal RNA Control Kit (Applied Biosystems), served as an internal control. The results were quantified as Ct values, where Ct is defined as the threshold cycle of PCR at which amplified product is first detected, and defined as relative gene expression (the ratio of target/control). […] The RNA concentration was quantified by UV spectroscopy and any degradation assessed by ethidium bromide staining intensity of 28S and 18S ribosomal RNA following agarose gel electrophoresis. […] Following PCR, the amplification products were separated by polyacrylamide gel electrophoresis, visualized by autoradiography, and analyzed using the MCID imaging system.
For reverse-transcriptase real-time PCR, RNA was isolated from cells or tissue, using the TRIzol reagent (GIBCO Invitrogen Corp., Carlsbad, Calif.), as directed by the manufacturer. The RNA concentration and integrity were assessed using an Agilent 2100 Bioanalyzer with an RNA 6000 nano LabChip (Agilent Technologies, Palo Alto, Calif.). […]

[2] = tested on: SK-LU-1 lung cancer cells; assay type: cell-based, human
Procedure: Cells were grown to subconfluence in either 24-well cluster plates or 100 mm dishes and made quiescent by treatment for 48 h with serum-depleted growth media, prior to the experiments outlined below to measure cell growth (^3H-thymidine incorporation), cell signaling or apoptosis.
Subsequently, the cell monolayer was washed with cold phosphate-buffered saline (PBS; 50 mM NaPO4, 120 mM NaCl, pH=7.2). The adherent cells were precipitated with cold 10% TCA (4° C. for 30 min) and dissolved in 0.2% SDS in 0.1 N NaOH.
During an additional 4 h, cell monolayers were pulsed with ^3H-thymidine (0.25 μCi/well) and harvested.

[3] = tested on: A549 human lung tumor xenografts; experiment: A549 human lung tumor xenograft in athymic mice, intravenous infusion; assay type: in vivo, mouse
Procedure: For reverse-transcriptase real-time PCR, RNA was isolated from cells or tissue, using the TRIzol reagent (GIBCO Invitrogen Corp., Carlsbad, Calif.), as directed by the manufacturer. The RNA concentration and integrity were assessed using an Agilent 2100 Bioanalyzer with an RNA 6000 nano LabChip (Agilent Technologies, Palo Alto, Calif.). Approximately 1 μg of total RNA was reverse transcribed using avian myeloblastosis virus reverse transcriptase (RT) in a 20 μL mixture containing deoxyribonucleotides, random hexamers and RNase inhibitor in RT buffer. Heating the RT reaction product at 95° C. terminated the reaction. For real-time polymerase chain reaction (PCR), 2 μL of the resultant cDNA was added to TaqMan Universal PCR Master Mix (Applied Biosystems, Foster City, Calif.) with a gene-specific primer/probe set (Applied Biosystems, Foster City, Calif.) and amplification was performed on an ABI 7000 Sequence Detection System. The mixtures were heated at 50° C. for 2 min, at 95° C. for 10 min followed by 40 cycles at 95° C. for 15 sec and 60° C. for 1 min. All reactions were performed in triplicate and 18S ribosomal RNA, amplified using the TaqMan Ribosomal RNA Control Kit (Applied Biosystems), served as an internal control. The results were quantified as Ct values, where Ct is defined as the threshold cycle of PCR at which amplified product is first detected, and expressed as the ratio of target/control (Relative Gene Expression).
Quiescent A549 lung cancer cells or tumor tissue cut into approximately 1-2 mm^2 size pieces were homogenized in phosphate-buffered saline (PBS; 50 mM NaPO4, pH=7.2, 100 mM NaCl). Plasma membranes were isolated by centrifugation and solubilized by boiling in 3% SDS-10% B-mercaptoethanol. PBS was added to the membrane fraction to solubilize the proteins. The protein concentration was measured by a modification of the Lowry method. Solubilized protein (20 μg/well) from saline- and Ang-(1-7)-treated animals were separated by SDS-polyacrylamide gel electrophoresis and transferred to polyvinyl membranes (Amersham Pharmacia, Piscataway, N.J.). Non-specific binding was blocked with 5% blotto (5% evaporated milk, 0.1% Triton X-100 in Tris-buffered saline (TBS; 50 mM Tris-HCl, pH 7.4, 50 mM NaCl). The membranes were incubated with a COX-2 antibody (1:1000; Cayman Chemicals, Ann Arbor, Mich.) followed by a goat anti-rabbit antibody (1:1000; Amersham, Piscataway, N.J.) coupled to horseradish peroxidase. Chemiluminescence reagents were added to visualize the immunoreactive bands, which were quantified by densitometry. An antibody to actin (Sigma, St Louis, Mo.) served as the loading control.
Male or female athymic mice (15-20 g, 2-4 weeks of age, Charles River Laboratory, Wilmington, Mass.) were housed in cages with HEPA-filtered air (12-hour light/dark cycle) and ad libitum access to food and autoclaved water. All procedures complied with the policies of the Wake Forest University Animal Care and Use Committee. Mice were inoculated subcutaneously in the lower left flank with approximately 1.9×10^6 A549 lung cancer cells or ZR-75-1 breast cancer cells suspended in 200 μL of cold Matrigel (BD Biosciences, Bedford, Mass.). […] The mice were anesthetized by inhalation with 1.5% isoflurane. […] The minipumps also contained heparin (25 U/mL) to maintain patency of the catheter. On day 28 of the infusion, the animals were anesthetized with halothane and sacrificed by decapitation. Alternatively, the mice received daily subcutaneous injections of Ang-(1-7) in saline or saline alone.
Tumors were fixed with 4% paraformaldehyde for 24 h and incubated in 70% ethanol for 48 h prior to embedding in paraffin. The embedded tumors were cut into five micron thick sections and stained with hematoxylin and eosin to determine morphology. […]

[4] = tested on: caspase-9; experiment: Caspase-9 activity in A549 cell lysates; assay type: cell-based, human; details: A549 cells, 100 nM
[5] = 24 μg/kg/h intravenous, 28 days, versus saline
[6] = 28 days infusion, versus saline

CC[C@H](C)[C@H](NC(=O)[C@H](Cc1ccc(O)cc1)NC(=O)[C@@H](NC(=O)[C@H](CCCNC(=N)N)NC(=O)[C@@H](N)CC(=O)O)C(C)C)C(=O)N[C@@H](Cc1c[nH]cn1)C(=O)N1CCC[C@H]1C(=O)O [Ang-(1-7), Asp-Arg-Val-Tyr-Ile-His-Pro]
optimal reduction of VEGF mRNA [1]: greater than 50% | ^3H-thymidine incorporation over time of treatment ([2]; SK-LU-1, 1% FBS, daily addition of 100 nM): progressively reduced | effect on serum-stimulated ^3H-thymidine incorporation ([2]; SK-LU-1, peptide at 1 or 100 nM): reduced | capsular vessel number [3, 5]: no difference | down-regulation in VEGF mRNA in tumor tissue [3, 5]: greater than 50% | reduction in intratumoral vessel formation [3, 5]: > 75% | average tumor volume at end of infusion ([3]; 24 μg/kg/h intravenous, day 28, n=5, saline 326.3±47.2): 84.4±19.8 mm^3 | body weight, food and water consumption during infusion ([3]; 24 μg/kg/h, 28 days): maintained their body weight as well as food and water consumption | gross pathology of major organs following sacrifice ([3]; 24 μg/kg/h, 28 days): no gross pathological abnormalities | APAF mRNA in tumor tissue [3, 6]: significant increase | caspase 3 mRNA in tumor tissue [3, 6]: significant increase | COX-2 protein, density of COX-2 immunoreactivity as a function of actin ([3]; Western blot of tumor tissue, n=5, saline 0.99±0.12): 0.41±0.09 | tumor weight less than saline-infused ([3]; at sacrifice, day 28): 50% | tumor weight ([3]; at sacrifice, day 28, n=5, saline 0.28±0.03): 0.13 ± 0.01 g | proportion of apoptotic nuclei (cleaved caspase 3) ([3]; intravenous infusion, n=4-5, saline 18.8±9.4%): 75±4.6% | proportion of proliferating cells (Ki67) ([3]; n=5, saline 73±[…]): 49.5±9.4% | reduction of COX-2 protein ([3]; tumor tissue, versus saline): 59% | decrease in COX-2 mRNA ([3]; tumor xenografts, RT real-time PCR, versus saline): 57% | caspase-9 activity [4]: no effect
